Like-named read-outs stand apart in the source and are kept apart here.
Biological target: GDP-bound KRAS protein (aa 1-169), containing both G12C and C118A amino acid substitutions (Homo sapiens (Human), UniProt P01116, C118A/G12C)
Test: Coupled Nucleotide Exchange Assay
Type: biochemical
Protocol: For compounds in Table 9, the following assay conditions were employed:
Coupled Nucleotide Exchange Assay:
The assay plates were then read on a PerkinElmer EnVision Multilabel Reader, using AlphaScreen® technology, and data were analyzed using a 4-parameter logistic model to calculate IC50 values.

[1] = read-out: Coupled Exchange IC50 (5 min), 5 min compound pre-incubation
[2] = read-out: Coupled Exchange IC50 (2 h), 2 h compound pre-incubation
[3] = read-out: Coupled Exchange IC50 (20 h), 20 h compound pre-incubation

GDP-bound KRAS protein (aa 1-169), containing both G12C and C118A amino acid substitutions, sequence (P01116 other isoform, or with tags, fused parts or gaps G12C/C118A): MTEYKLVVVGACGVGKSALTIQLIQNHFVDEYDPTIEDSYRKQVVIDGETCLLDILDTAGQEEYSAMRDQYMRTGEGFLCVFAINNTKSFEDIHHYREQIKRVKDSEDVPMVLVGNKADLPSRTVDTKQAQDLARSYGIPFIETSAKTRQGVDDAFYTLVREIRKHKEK

| SMILES | IC50 [1] [µM] | IC50 [2] [µM] | IC50 [3] [µM] |
| --- | --- | --- | --- |
| C=CC(=O)N1CC(NC(=O)Cn2ccc3cc(Br)ccc32)C1 [Example 180] | 201 | > 250 | 5.5 |
| C=CC(=O)N1CC(NC(=O)Cn2c(C(=O)OC)cc3cc(Br)ccc32)C1 [Example 181] | – | > 250 | 6.47 |
| C=CC(=O)N1CC(NC(=O)Cn2ccc3ccc(Br)cc32)C1 [Example 182] | – | > 250 | > 250 |
| C=CC(=O)N1CC(NC(=O)Cn2ccc3ccccc32)C1 [Example 183] | – | > 250 | > 250 |
| C=CC(=O)N1CC(NC(=O)Cn2c(C=O)cc3cc(Br)ccc32)C1 [Example 185] | – | > 250 | 15.9 |
| C=CC(=O)N1CC(NC(=O)Cn2ccc3cc(Br)c(C)cc32)C1 [Example 186] | > 250 | 26.6 | 4.47 |
| C=CC(=O)N1CC(NC(=O)Cn2ccc3cc(Cl)ccc32)C1 [Example 187] | > 250 | > 250 | 7.27 |
| C=CC(=O)N1CC(NC(=O)Cn2ccc3cc(I)ccc32)C1 [Example 188] | – | 22.2 | 3.71 |
| C=CC(=O)N1CC(NC(=O)Cn2c(C(=O)NCCc3ccccc3)cc3cc(Br)ccc32)C1 [Example 189] | – | 15.6 | 1.62 |
| C=CC(=O)N1CC(NC(=O)Cn2ccc3cc(Br)cc(C)c32)C1 [Example 190] | 193 | 16 | 1.76 |
| C=CC(=O)N1CC(NC(=O)Cn2ccc3cc(C#N)ccc32)C1 [Example 191] | – | > 250 | > 250 |
| C=CC(=O)N1CC(NC(=O)Cn2c(C(=O)NCc3ccccc3)c(I)c3cc(Br)ccc32)C1 [Example 192] | – | 107 | 61.7 |
| C=CC(=O)N1CC(NC(=O)Cn2c3ccc(Br)cc3c3cc(Br)ccc32)C1 [Example 193] | – | > 250 | 0.39 |
| C=CC(=O)N1CC(NC(=O)Cn2cc(C)c3cc(Br)ccc32)C1 [Example 194] | 151 | 30.1 | 2.23 |
| C=CC(=O)N1CC(NC(=O)Cn2c3ccccc3c3ccccc32)C1 [Example 195] | – | > 250 | 33.5 |
| C=CC(=O)N1CC(NC(=O)Cn2c(-c3ncccn3)cc3cc(Cl)ccc32)C1 [Example 196] | – | 45.6 | 6.09 |
| C=CC(=O)N1CC(NC(=O)Cn2cc(-c3cnn(C)c3)c3cc(Cl)ccc32)C1 [Example 197] | – | 24.5 | 5.51 |
| C=CC(=O)N1CC(NC(=O)Cn2ccc3cc(F)ccc32)C1 [Example 198] | – | > 250 | > 250 |
| C=CC(=O)N1CC(NC(=O)Cn2ccc3c(Cl)cccc32)C1 [Example 199] | – | > 250 | 21.6 |
| C=CC(=O)N1CC(NC(=O)Cn2cc(C(=O)C(=O)OCC)c3ccccc32)C1 [Example 200] | – | > 250 | > 250 |
| C=CC(=O)N1CC(NC(=O)Cn2cc(C(=O)C(=O)O)c3ccccc32)C1 [Example 201] | – | > 250 | > 250 |
| C=CC(=O)N1CC(NC(=O)Cn2ccc3ccc(Cl)cc32)C1 [Example 202] | – | > 250 | > 250 |

| SMILES | IC50 [1] [µM] | IC50 [2] [µM] | IC50 [3] [µM] |
| --- | --- | --- | --- |
| C=CC(=O)N1CC(NC(=O)Cn2ccc3cccc(Cl)c32)C1 [Example 203] | – | > 250 | > 250 |
| C=CC(=O)N1CC(NC(=O)Cn2cc(-c3c(C)ccc4cn[nH]c34)c3cc(-c4c(C)ccc5cn[nH]c45)ccc32)C1 [Example 205] | – | 80.5 | 11.4 |
| C=CC(=O)N1CC(NC(=O)Cn2cc(-c3cccnc3)c3cc(Br)ccc32)C1 [Example 206] | – | 14.1 | 2.84 |
| C=CC(=O)N1CC(NC(=O)Cn2cc(-c3cccnc3)c3cc(-c4cccnc4)ccc32)C1 [Example 207] | – | 164 | 18.2 |
| C=CC(=O)N1CC(NC(=O)Cn2cc(-c3c(F)ccc4cn[nH]c34)c3cc(-c4c(F)ccc5cn[nH]c45)ccc32)C1 [Example 208] | – | 20.5 | 13 |
| C=CC(=O)N1CC(NC(=O)Cn2cc(-c3ccccc3OC)c3cc(-c4ccccc4OC)ccc32)C1 [Example 209] | – | 14.1 | 3.01 |
| C=CC(=O)N1CC(NC(=O)Cn2cc(-c3ccc(F)cc3F)c3cc(-c4ccc(F)cc4F)ccc32)C1 [Example 210] | – | > 250 | 10.9 |
| C=CC(=O)N1CC(NC(=O)Cn2cc(C#N)c3cc(Br)ccc32)C1 [Example 211] | – | 22.9 | 5.2 |
| C=CC(=O)N1CC(NC(=O)Cn2cc(I)c3ccccc32)C1 [Example 212] | > 250 | 27.4 | 6.8 |
| C=CC(=O)N1CC(NC(=O)Cn2cc(Cc3ccccc3)c3ccccc32)C1 [Example 213] | – | 31.1 | 5.09 |
| C=CC(=O)N1CC(NC(=O)Cn2cc(CC#N)c3cc(Br)ccc32)C1 [Example 214] | – | 33.8 | 4.48 |
| C=CC(=O)N1CC(NC(=O)Cn2c(-c3ccncc3)cc3ccccc32)C1 [Example 215] | – | > 250 | > 250 |
| C=CC(=O)N1CC(NC(=O)Cn2cc(-c3cccc(C#N)c3)c3cc(Br)ccc32)C1 [Example 216] | – | 12.9 | 3 |
| C=CC(=O)N1CC(NC(=O)Cn2ccc3cc(C4CC4)ccc32)C1 [Example 217] | – | > 250 | > 125 |
| C=CC(=O)N1CC(NC(=O)Cn2c3ccc(Br)cc3c3ccc(Cl)nc32)C1 [Example 218] | – | > 250 | > 250 |
| C=CC(=O)N1CC(NC(=O)Cn2cc(-c3cocn3)c3ccc(-c4ccccc4Cl)cc32)C1 [Example 219] | – | > 250 | 2.87 |
| C=CC(=O)N1CC(NC(=O)Cn2c(C(=O)OC)cc3c(Cl)c(Cl)ccc32)C1 [Example 220] | – | 12.2 | 1.89 |
| C=CC(=O)N1CC(NC(=O)Cn2c(C(=O)NCc3ccc(C(=O)O)s3)cc3cc(Br)ccc32)C1 [Example 225] | – | > 250 | 19.8 |
| C=CC(=O)N1CC(NC(=O)Cn2cc(CC(=O)NCc3ccccc3)c3cc(Br)ccc32)C1 [Example 226] | – | 8.23 | 1.66 |
| C=CC(=O)N1CC(NC(=O)Cn2c3c(c4cc(Br)ccc42)CCN(C(=O)OCc2ccccc2)C3)C1 [Example 227] | – | 12.3 | 2.61 |
| C=CC(=O)N1CC(NC(=O)Cn2cc(-c3cc[nH]n3)c3ccc(-c4ccccc4Cl)cc32)C1 [Example 229] | – | 18.9 | 5.4 |
| C=CC(=O)N1CC(NC(=O)Cn2cc(Cc3ccccc3)c3cc(Br)ccc32)C1 [Example 231] | – | 10.3 | 2.05 |

| SMILES | IC50 [1] [µM] | IC50 [2] [µM] | IC50 [3] [µM] |
| --- | --- | --- | --- |
| C=CC(=O)N1CC(NC(=O)Cn2ccc3cc([N+](=O)[O-])ccc32)C1 [Example 232] | – | > 250 | 94.1 |
| C=CC(=O)N1CC(NC(=O)Cn2cc(Br)c3cc([N+](=O)[O-])ccc32)C1 [Example 233] | > 250 | 11.4 | 1.58 |
| C=CC(=O)N1CC(NC(=O)Cn2c3ccc(Br)cc3c3ccc(Oc4ccc(F)cc4)nc32)C1 [Example 234] | – | > 250 | 0.32 |
| C=CC(=O)N1CC(NC(=O)Cn2ccc3cc(C(F)(F)F)ccc32)C1 [Example 235] | – | > 250 | 5.45 |
| C=CC(=O)N1CC(NC(=O)Cn2ccc3cc(OC)ccc32)C1 [Example 236] | – | > 250 | > 250 |
| C=CC(=O)N1CC(NC(=O)Cn2ccc3cc(-c4ccccc4)ccc32)C1 [Example 237] | – | > 250 | > 250 |
| C=CC(=O)N1CC(NC(=O)Cn2c3c(c4cc(Br)ccc42)C=NCC3)C1 [Example 238] | – | 73.1 | 9.89 |
| C=CC(=O)N1CC(NC(=O)Cn2c3c(c4cc(Br)ccc42)CCN(Cc2ccccc2)C3)C1 [Example 239] | – | > 250 | 44 |
| C=CC(=O)N1CC(NC(=O)Cn2cc([N+](=O)[O-])c3cc(Cl)ccc32)C1 [Example 240] | – | 13.1 | 1.33 |
| C=CC(=O)N1CC(NC(=O)CN2Cc3c(n(C(C)=O)c4ccc(Br)cc34)C2)C1 [Example 242] | – | > 250 | 7.66 |
| C=CC(=O)N1CC(NC(=O)Cn2c(-c3ccccc3)cc3cc(Br)ccc32)C1 [Example 243] | – | 18.2 | 2.82 |
| C=CC(=O)N1CC(NC(=O)Cn2c3c(c4cc(Br)ccc42)CNCC3)C1 [Example 249] | – | 54.6 | 21.7 |
| C=CC(=O)N1CC(NC(=O)Cn2c3c(c4cc(Br)ccc42)CCNC3)C1 [Example 250] | – | 89.4 | 5.69 |
| C=CC(=O)N1CC(NC(=O)Cn2c3c(c4cc(Br)ccc42)CN(C(C)=O)CC3)C1 [Example 251] | – | > 250 | 7.91 |
| C=CC(=O)N1CC(NC(=O)Cn2c3c(c4cc(Br)ccc42)CCN(C(C)=O)C3)C1 [Example 252] | – | 19.4 | 2.49 |
| C=CC(=O)N1CC(NC(=O)Cn2cc(C(C)(O)C(=O)NCc3ccccc3)c3cc(Br)ccc32)C1 (centres unmarked) [Example 253] | – | 19.4 | 2.31 |
| C=CC(=O)N1CC(NC(=O)Cn2ccc3c(F)c(Br)ccc32)C1 [Example 255] | – | > 250 | 4.89 |
| C=CC(=O)N1CC(NC(=O)Cn2cc(I)c3cc(C(F)(F)F)ccc32)C1 [Example 257] | 64.7 | 9.12 | 0.97 |
| C=CC(=O)N1CC(NC(=O)Cn2ccc3cc(Cl)c(Cl)cc32)C1 [Example 258] | – | 104 | 5.22 |
| C=CC(=O)N1CC(NC(=O)Cn2c3ccc(Br)cc3c3ccncc32)C1 [Example 259] | – | 26.8 | 2.88 |
| C=CC(=O)N1CC(N(C)C(=O)Cn2c3ccccc3c3cc(Br)ccc32)C1 [Example 261] | – | 15.4 | 2.17 |
| C=CC(=O)N1CC(NC(=O)Cn2c3c(c4cc(Br)ccc42)CCCC3=O)C1 [Example 262] | – | > 250 | 3.31 |

Source: patent US11053226B2, “KRAS G12C inhibitors and methods of using the same” (Amgen Inc., priority 2018, dated 2021)
